Experimental data as given in patent US12714714B2, “Combination therapy for treating executive function disorders” (Anaka Pharmaceuticals, Inc., priority 2021, dated 2026).
Values joined by “and” are separate entries in the source; they are usually repeats but may differ in a detail not shown here. Equal values may be shown once.

What was measured:
[1] = tested on: Severe ADHD; experiment: Case study A: (Example 3); format: in vivo, human
Description: (§1) The combination of lacosamide and oxcarbazepine has been administered to three additional patients with various symptoms associated with executive function disorder. The combination of lacosamide and oxcarbazepine was successful in alleviating different symptoms of executive function disorder.

[2] = tested on: children who take methylphenidate; conditions: cited from earlier work
[3] = tested on: patients suffering from ADHD; experiment: TONI-2 nonverbal reasoning test (Example 1); format: in vivo, human
Description: (§2) Patients were monitored clinically every week, during the whole duration of the study. They were also monitored on their pedagogic condition and evolution: before any treatment, mid-term and by the end of the lacosamide monotherapy and combination treatment. In addition, the patients were monitored neuropsychologicaly through the administration of different tests, pre- and post-treatment. A basal measure of their executive capabilities was established before any treatment.
(§3) The results of neuropsychological tests for lacosamide monotherapy and lacosamide and oxcarbazepine combination therapy were evaluated.

[4] = tested on: reuptake of norepinephrine, dopamine, and serotonin; conditions: cited from earlier work
[5] = tested on: potassium or calcium currents; conditions: cited from earlier work
[6] = tested on: patients suffering from ADHD; experiment: Stroop test (Example 1); format: in vivo, human
Description: as §2, §3

[7] = tested on: AMPA, kainate, NMDA, GABAA, GABAB, dopaminergic, serotonergic, adrenergic, muscarinic or cannabinoid receptors; conditions: cited from earlier work
[8] = tested on: patients suffering from ADHD; experiment: Determination of clinically effective dose, lacosamide monotherapy vs combination therapy (Example 1); format: in vivo, human; conditions: for Clinically effective dose of lacosamide: in monotherapy vs in combination therapy with oxcarbazepine
Protocol: (§4) The effects of lacosamide monotherapy were tested in three patients (two boys; and one child) suffering from ADHD over the period of 6 months. After the period of 6 months, the treatment was discontinued for 45 days. Next, the three patients were treated with a combination of lacosamide and oxcarbazepine for a period of 3 months. The results of monotherapy and combination therapy were compared.
as §2
(§5) Initially, a dose of 50 mg/12 hrs of lacosamide was administered to every patient. Through the study, the dose of lacosamide was increased (by 100 mg per week) to […] for every patient, following clinical response (on attention capacity, sleep, tiredness, mood stability, comprehension and general cognitive improvement).
Initially, a dose of 50 mg/12 hrs of lacosamide and a dose of 300 mg/12 hrs of oxcarbazepine was administered to every patient. Through the study, the dose of lacosamide was increased (by 100 mg per week) to 200 mg/12 hrs for every patient, following clinical response (attention capacity, sleep, tiredness, mood stability, comprehension and general cognitive improvement). […] The dose for oxcarbazepine was increased in week 7 to 450 mg/12 hrs for every patient, maintaining the previously reached respective doses for lacosamide.
Starting from this initial dose (50 mg/12 hs), the dose of lacosamide was adjusted to reflect clinically effective dose, based on clinical signs. Lacosamide was initially raised by 100 mg/24 hs in two takes. The highest dose of lacosamide was 400 mg/24 hs. In the combination therapy, oxcarbazepine was raised from 600 mg to 900 mg for all participants after 6 weeks, regardless of their lacosamide dosage.
The final dosage of lacosamide and oxcarbazepine was established based on patients' clinical results for executive dysfunction and the neurophysiological symptoms (e.g. hyperactivity, enuresis, and lethargy).

[9] = tested on: patients suffering from ADHD; experiment: Clinical evolution under treatment, weekly clinical and pedagogic monitoring (Example 1); format: in vivo, human
Protocol: as §4, §2
The treatment was delivered twice a day and went on for at least 3 months.
as §5
Initially, a dose of 50 mg/12 hrs of lacosamide and a dose of 300 mg/12 hrs of oxcarbazepine was administered to every patient. Through the study, the dose of lacosamide was increased (by 100 mg per week) to 200 mg/12 hrs for every patient, following clinical response (attention capacity, sleep, tiredness, mood stability, comprehension and general cognitive improvement). In response to clinical presentation of all three patients, the dose of lacosamide was decreased to 100 mg/12 hrs and maintained thereafter. The dose for oxcarbazepine was increased in week 7 to 450 mg/12 hrs for every patient, maintaining the previously reached respective doses for lacosamide.

[10] = tested on: voltage-gated sodium channels; conditions: cited from earlier work
[11] = target: GABA transaminase (Homo sapiens, UniProt P80404); conditions: cited from earlier work
Chain of GABA transaminase (P80404 29-500, species assumed): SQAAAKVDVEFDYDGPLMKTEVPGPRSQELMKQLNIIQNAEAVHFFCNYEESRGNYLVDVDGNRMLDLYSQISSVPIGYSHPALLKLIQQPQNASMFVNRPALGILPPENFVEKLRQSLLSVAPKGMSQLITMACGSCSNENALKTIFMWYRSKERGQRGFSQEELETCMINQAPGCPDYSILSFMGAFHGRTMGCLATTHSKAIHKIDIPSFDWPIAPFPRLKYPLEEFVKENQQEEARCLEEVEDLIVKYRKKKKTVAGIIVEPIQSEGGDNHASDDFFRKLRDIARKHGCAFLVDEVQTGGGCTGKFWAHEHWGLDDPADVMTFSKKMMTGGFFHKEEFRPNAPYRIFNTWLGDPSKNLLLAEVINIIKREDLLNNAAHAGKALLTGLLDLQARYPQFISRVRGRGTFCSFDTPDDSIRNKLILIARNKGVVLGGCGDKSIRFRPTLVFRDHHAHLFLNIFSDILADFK

[12] = tested on: patients suffering from ADHD; experiment: WCST (Example 1); format: in vivo, human
Description: as §2, §3

[13] = tested on: patients suffering from ADHD; experiment: Conners' Continuous Performance Test CPT-2 (Example 1); format: in vivo, human
Description: as §2
The results of neuropsychological tests for lacosamide monotherapy and lacosamide and oxcarbazepine combination therapy were evaluated. […] The other patient had similar results for monotherapy and combination treatment.

[14] = tested on: Severe autism (Level 3); experiment: Case Study C: (Example 3); format: in vivo, human
Description: as §1

[15] = patient 001, October 2020 = lacosamide monotherapy, December 2020 = combination therapy
[16] = patient 002, October 2020 = lacosamide monotherapy, December 2020 = combination therapy
[17] = patient 003, October 2020 = after 6 months lacosamide alone, December 2020 = after 3 months combined therapy
[18] = patient 003, table: December 2020, combined therapy, text b168: monotherapy vs combined therapy

Nc1nnc(-c2cccc(Cl)c2Cl)c(N)n1 [Lamotrigine]
Neurophysiological and Neuropsychological symptoms [1]: combined therapy. This was not accomplished | lasting improvement in treating subject's symptoms, drugs received prior to therapy used in this study [1]: None showed lasting improvement in treating

COC(=O)C(c1ccccc1)C1CCCCN1 (stereo not drawn) [Methylphenidate]
share of children who develop symptoms of obsessive-compulsive behaviour [2]: one third | lasting improvement in treating subject's symptoms, drugs received prior to therapy used in this study [1]: None showed lasting improvement in treating

CCCC(CCC)C(=O)O [Valproic Acid]
lasting improvement in treating subject's symptoms, drugs received prior to therapy used in this study [1]: None showed lasting improvement in treating

COC[C@@H](NC(C)=O)C(=O)NCc1ccccc1 [lacosamide, (2R)-2-(acetylamino)-N-benzyl-3-methoxypropanamide]
non-verbal reasoning capacity ([3]; Case 003, after 6 months Lacosamide monotherapy vs after combined therapy): 95 points | TONI-2 Nonverbal Reasoning Ability, Level (CI) [3, 15]: CI-111 | TONI-2 Nonverbal Reasoning Ability, Severity Range [3, 15]: 17/55 | TONI-2 Nonverbal Reasoning Ability, Level (CI) [3, 16]: CI-104 | TONI-2 Nonverbal Reasoning Ability, Severity Range [3, 16]: 28/55 | TONI-2 Nonverbal Reasoning Ability, Level (CI) [3, 17]: CI-95 | TONI-2 Nonverbal Reasoning Ability, Severity Range [3, 17]: 19/55 | modulation of the reuptake of neurotransmitters including norepinephrine, dopamine, and serotonin [4]: does not modulate | block of potassium or calcium currents [5]: does not block | Stroop-c Level [6, 15]: 1 | Stroop-c Nominative capacity, Severity Range [6, 15]: 43/100 | Stroop-c/p Level [6, 15]: 1 | Stroop-c/p Resistance to Perseveration, Severity Range [6, 15]: 18/100 | Stroop-p Level [6, 15]: 2 | Stroop-p Nominative capacity, Severity Range [6, 15]: 51 and 51/100 | Stroop-p Actual Interpretation ([6]; patient 001, table: December 2020, combination therapy, text b160: before vs after): Slight Impairment | Stroop-c Level [6, 16]: 3 | Stroop-c Nominative capacity, Severity Range [6, 16]: 40/100 | Stroop-c/p Level [6, 16]: 2 | Stroop-c/p Resistance to Perseveration, Severity Range [6, 16]: 30/100 | Stroop-p Level [6, 16]: 4 | Stroop-p Nominative capacity, Severity Range [6, 16]: 32/100 | Stroop-c Level [6, 17]: 2 | Stroop-c Nominative capacity, Severity Range [6, 17]: 51/100 | Stroop-c/p Level [6, 17]: 3 | Stroop-c/p Resistance to Perseveration, Severity Range [6, 17]: 21/100 | Stroop-p Level [6, 17]: 3 | Stroop-p Nominative capacity, Severity Range [6, 17]: 51/100 | effect on AMPA, kainate, NMDA, GABAA, GABAB or dopaminergic, serotonergic, adrenergic, muscarinic or cannabinoid receptors [7]: does not affect | clinically effective dose of lacosamide in monotherapy ([8]; 2 patients): 600 mg per day | Clinically effective dose of lacosamide ([8]; Patient 1): 600 mg/day | Clinically effective dose of lacosamide ([8]; Patient 2): 600 mg/day | Clinically effective dose of lacosamide ([8]; Patient 3): 350 mg/day | clinically effective dose of lacosamide in monotherapy ([8]; one patient): 350 mg | mood instability (aggressive behaviour towards others, deliberately contained anger, sadness) ([9]; ADHD patients): only partially regressed | cognitive disabilities ([9]; Case 001): improved many cognitive disabilities | dysphasia, and extreme impulsiveness ([9]; Case 001): remained unchanged | pedagogic evolution (Comprehensive Reading) ([9]; Case 002): never obtained | ability to speak ([9]; Cases 002 and 003): unaffected | cognitive disability ([9]; Cases 002 and 003): improved under lacosamide alone, but the degree of the disability never really disappeared | hyperactivity regulation (severe hyperkinesia) ([9]; the one of 3 ADHD patients with hyperkinesia): did not improve | enuresis episodes ([9]; the two patients that suffered from this symptom): partially stopped | lethargic situations ([9]; two patients with absence of energy and tense tiredness): disappeared | fast inactivation of voltage-gated sodium channels [10]: without affecting | slow inactivation of voltage-gated sodium channels [10]: enhances | inhibition of GABA transaminase [11]: does not inhibit | WCST Cognitive flexibility, Level [12, 15]: 1 | WCST Cognitive flexibility, persistent errors [12, 15]: 24 persistent | WCST Reasoning (Abstraction Categorization), Level [12, 15]: 2 | WCST Reasoning (Abstraction Categorization), categories completed [12, 15]: 3 categories | WCST Cognitive flexibility, Level [12, 16]: 0 | WCST Cognitive flexibility, persistent errors [12, 16]: 5 persistent | WCST Reasoning (Abstraction Categorization), Level [12, 16]: 0 | WCST Reasoning (Abstraction Categorization), categories completed [12, 16]: 8 categories | WCST Cognitive flexibility, Level [12, 17]: 2 | WCST Cognitive flexibility, persistent errors [12, 17]: 23 persistent | WCST Reasoning (Abstraction Categorization), Level [12, 17]: 2 | WCST Reasoning (Abstraction Categorization), categories completed [12, 17]: 4 categories | WCST Cognitive flexibility, interpretation [12, 18]: Slight | WCST Reasoning (Abstraction Categorization), interpretation [12, 18]: Slight Impairment | CPT-2-c Level [13, 15]: 1 | CPT-2-c impulsivity indicators (Severity Range) [13, 15]: No | CPT-2-o Level [13, 15]: Clinical | CPT-2-o Severity Range, score [13, 15]: 76.92% | CPT-2-o inattention indicators [13, 15]: 6 | CPT-2-o indicators within limitations in surveillance [13, 15]: 2 indicators | CPT-2-o Actual Interpretation ([13]; patient 001, table: December 2020, combination therapy, text b159: first vs second evaluation): Severe Impairment | CPT-2-c Level [13, 16]: 2 | CPT-2-c impulsivity indicators (Severity Range) [13, 16]: 1 impulsivity | CPT-2-o Level [13, 16]: Non | CPT-2-o Severity Range, score [13, 16]: 37.01% | CPT-2-o inattention indicators [13, 16]: 2 inattention | CPT-2-c Level [13, 17]: 2 | CPT-2-c impulsivity indicators (Severity Range) [13, 17]: 1 impulsivity | CPT-2-o Level [13, 17]: Clinical | CPT-2-o Severity Range, score [13, 17]: 50% | CPT-2-o inattention indicators [13, 17]: (6 inattention

NC(=O)N1c2ccccc2CC(=O)c2ccccc21 [oxcarbazepine, 5-oxo-6H-benzo[b][1]benzazepine-11-carboxamide]
aggressive behavior and lack of interactivity with other members of the household [14]: attention. They maintained aggressive | delivery of the desired therapeutic result [14]: Oxcarbazepine alone was not sufficient to | hyperkinesia and impulsiveness [14]: Minor improvement to subject's hyper- | sleeping pattern [14]: instability remained in sleeping pattern | way they behaved during awake moments, quality of their day's attention [14]: not approve in the way they behaved during
